Source: patent US6335339B1, “Triazine antiviral compounds” (Scriptgen Pharmaceuticals, Inc., priority 1998, dated 2002)

Test: neutral red dye uptake cytotoxicity
Assay type: cell-based
Conditions: human, 2.2.15 cells (confluent cultures), 9 days treatment, read-out: 50% Cell Death CC50
How it was run: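 Confluent 2.2.15 cultures, same conditions as antiviral assay, treated daily for 9 days with 4 concentrations (3.3-fold dilutions), triplicate wells. 24 hours after the final dose, cells stained 30 minutes with 0.01% neutral red, dye extracted and A510 read; values as % of untreated cultures, CC50 as 50% cell death.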

## CC(C)(C)Nc1nc(NCc2ccccc2)nc(N/N=C/c2ccccc2F)n1 [Compound 93, 2-fluorobenzaldehyde N-[4-(benzylamino)-6-(tert-butylamino)-1,3,5-triazin-2-yl]hydrazone]
  CC50 at 9 days: 54 µM
